Cc1cc(C)[nH]n1
solubility (mole fraction)
Conditions | in acetone | in acetonitrile | in ethanol | in ethyl acetate | in isopropanol | in methanol | in n-butanol | in n-propanol | in toluene
283.15 K | 0.0625 | 0.0276 | 0.12 | 0.0508 | 0.115 | 0.107 | 0.133 | 0.123 | 0.0339
285.65 K | 0.0691 | 0.0312 | 0.127 | 0.0578 | 0.121 | 0.112 | 0.14 | 0.13 | 0.0382
288.15 K | 0.0757 | 0.0359 | 0.133 | 0.0663 | 0.128 | 0.118 | 0.149 | 0.137 | 0.045
290.65 K | 0.0838 | 0.0408 | 0.14 | 0.077 | 0.134 | 0.123 | 0.158 | 0.145 | 0.0517
293.15 K | 0.0935 | 0.0455 | 0.148 | 0.0881 | 0.142 | 0.131 | 0.166 | 0.152 | 0.0593
295.65 K | 0.105 | 0.0508 | 0.155 | 0.1 | 0.149 | 0.137 | 0.176 | 0.16 | 0.0677
298.15 K | 0.116 | 0.0568 | 0.163 | 0.113 | 0.157 | 0.143 | 0.187 | 0.167 | 0.0769
300.65 K | 0.129 | 0.0635 | 0.171 | 0.128 | 0.164 | 0.15 | 0.199 | 0.175 | 0.0863
303.15 K | 0.143 | 0.0722 | 0.179 | 0.144 | 0.171 | 0.158 | 0.211 | 0.184 | 0.0979
305.65 K | 0.16 | 0.0806 | 0.187 | 0.161 | 0.18 | 0.165 | 0.224 | 0.194 | 0.114
308.15 K | 0.175 | 0.0916 | 0.196 | 0.18 | 0.19 | 0.173 | 0.237 | 0.203 | 0.133
310.65 K | 0.194 | 0.102 | 0.205 | 0.199 | 0.199 | 0.18 | 0.251 | 0.213 | 0.151
313.15 K | 0.213 | 0.116 | 0.217 | 0.223 | 0.211 | 0.19 | 0.265 | 0.226 | 0.171
